# Molecular target: T1, γ-secretase (Aβ1-40 production) (Homo sapiens, UniProt P49768)
# T1 construct: made in house; host or cells: S-1 CHO cell line (Chinese hamster ovary)
# Experiment: γ-Secretase assay, Aβ1-40 ELISA
# Type: biochemical
# Settings: 50 μM
# Method: (§1) Purification of γ-Secretase and in Vitro γ-Secretase Assays—The following procedures can be used to isolate γ-secretase and measure its enzymatic activity. The multistep procedure for the high grade purification of human γ-secretase from the S-1 cells is performed as described previously (Fraering, P. C., et al. (2004) Biochemistry 43, 9774-9789). In vitro γ-secretase assays using the recombinant APP-based substrate C100FLAG and the recombinant Notch-based substrate N100FLAG are performed as reported previously (Esler, W. P., Kimberly, W. T., Ostaszewski, B. L., Ye, W., Diehl, T. S., Selkoe, D. J., and Wolfe, M. S. (2002) Proc. Natl. Acad. Sci. U.S.A. 99, 2720-2725, Kimberly, W. T., et al. (2003) Biochemistry 42, 137-144). Basically, the proteolytic reaction mixtures contain C100FLAG and N100FLAG substrate at a concentration of 1 μm, purified γ-secretase solubilized in 0.2% CHAPSO/HEPES, pH 7.5, at 10-fold dilution from stock (stock=the M2 anti-FLAG-eluted fraction in the purification protocol from S-1 cells (Fraering, P. C., et al. (2004) Biochemistry 43, 9774-9789)), 0.025% phosphatidylethanolamine (PE), and 0.10% phosphatidylcholine (PC). All the reactions are stopped by adding 0.5% SDS, and the samples are assayed for Aβ40 and Aβ42 by ELISA as described (Xia, W., Zhang, J., Ostaszewski, B. L., Kimberly, W. T., Seubert, P., Koo, E. H., Shen, J., and Selkoe, D. J. (1998) Biochemistry 37, 16465-16471). The capture antibodies are 2G3 (to Aβ residues 33-40) for the Aβ40 species and 21F12 (to Aβ residues 33-42) for the Aβ42 species.
# (§2) Naphthyl Amine Alcohol Analogs and Assay Data—Compounds listed in Table 2 may be assayed as described herein (e.g., in Examples 3 and 4) and the specificity may be evaluated by comparing the relative inhibitions of C-100 Flag and N-100 Flag cleavage. The potency of the inhibitor may be evaluated with an Aβ1-40 ELISA assay (e.g., using an Aβ40 ELISA kit available from Invitrogen, Carlsbad, Calif.). […] The following table indicates the properties of certain compounds of the invention that were assayed as described herein. (INH=Inhibits)
row,SMILES,inhibition at 50 µM [%]
1,C[C@@H](CN1CCN(c2ccc(F)cc2)CC1)[C@H](O)c1ccc2ccccc2c1 [Example 89],9
2,C[C@H](CN1CCN(c2ccc(F)cc2)CC1)[C@H](O)c1ccc2ccccc2c1 [Example 90],0

# Same assay, conditions: 100 μM
SMILES,inhibition at 100 µM [%],γ-Secretase Assay ELISA % Inhibition [100 μM] Aβ1-40 [%]
COc1ccc(N2CCN(CCC(O)c3ccc4ccccc4c3)CC2)cc1 (stereo not shown) [Example 2],0,
OC(CCN1CCN(c2ccccc2)CC1)c1ccc2ccccc2c1 (stereo not shown) [Example 3],0,
CC(C)N(CCC(O)c1ccccc1)Cc1ccccc1 (stereo not shown) [Example 4],10,
OC(CCN(Cc1ccccc1)Cc1ccccc1)c1ccc2ccccc2c1 (stereo not shown) [Example 5],32,
OC(CCN1CCCCCCC1)c1ccc2ccccc2c1 (stereo not shown) [Example 6],20,
OC(CCN(C1CCCCC1)C1CCCCC1)c1ccc2ccccc2c1 (stereo not shown) [Example 7],7,
CN(CCC(O)c1ccc2ccccc2c1)Cc1ccccc1 (stereo not shown) [Example 8],,15
CC(C)CN(CCC(O)c1ccc2ccccc2c1)CC(C)C (stereo not shown) [Example 9],0,
OC(CCNc1ccccc1)c1ccc2ccccc2c1 (stereo not shown) [Example 10],0,
CC(C)(C)N(CCC(O)c1ccc2ccccc2c1)Cc1ccccc1 (stereo not shown) [Example 11],0,
CCN(CCC(O)c1ccc2ccccc2c1)Cc1ccccc1 (stereo not shown) [Example 12],0,
CN(CCc1ccccc1)CCC(O)c1ccc2ccccc2c1 (stereo not shown) [Example 15],27,
OC(CCN1CCC2(CC1)OCCO2)c1ccc2ccccc2c1 (stereo not shown) [Example 16],2,
OC(CCNc1ccc2c(c1)OCCO2)c1ccc2ccccc2c1 (stereo not shown) [Example 21],0,
OC(CCNc1ccc(C2CCCCC2)cc1)c1ccc2ccccc2c1 (stereo not shown) [Example 22],0,
OC(CCNc1ccc(Cl)c(Cl)c1)c1ccc2ccccc2c1 (stereo not shown) [Example 23],0,
OC(CCNc1ccc(C(F)(F)F)cc1)c1ccc2ccccc2c1 (stereo not shown) [Example 24],0,
COc1ccc(NCCC(O)c2ccc3ccccc3c2)cc1 (stereo not shown) [Example 25],0,
CN(CCC(O)c1ccc2ccccc2c1)c1ccc(Oc2ccccc2)cc1 (stereo not shown) [Example 26],6,
CC(C)N(CCC(O)c1ccc2ccccc2c1)c1ccc(Cl)cc1 (stereo not shown) [Example 27],0,

SMILES,inhibition at 100 µM [%],γ-Secretase Assay ELISA % Inhibition [100 μM] Aβ1-40 [%]
OC(CCNc1cc(F)ccc1F)c1ccc2ccccc2c1 (stereo not shown) [Example 28],0,
COc1ccc(CN(CCC(O)c2ccc3ccccc3c2)C(C)C)cc1 (stereo not shown) [Example 29],55,
CC(C)N(CCC(O)c1ccc2ccccc2c1)Cc1ccc(C#N)cc1 (stereo not shown) [Example 34],19,
COc1cc(CN(CCC(O)c2ccc3ccccc3c2)C(C)C)cc(OC)c1 (stereo not shown) [Example 35],17,
CC(C)N(CCC(O)c1ccc2ccccc2c1)Cc1cccc(C#N)c1 (stereo not shown) [Example 36],7,
OC(CCN(Cc1ccccc1)C1CC1)c1ccc2ccccc2c1 (stereo not shown) [Example 37],36,
CC(C)N(CCC(O)c1ccc(F)cc1)Cc1ccccc1 (stereo not shown) [Example 38],17,
OC(CCN1CCN(c2ccc(F)cc2)CC1)c1ccc(C(F)(F)F)cc1 (stereo not shown) [Example 39],14,
CC(C)(C)c1ccc(C(O)CCN2CCN(c3ccc(F)cc3)CC2)cc1 (stereo not shown) [Example 40],46,
CC(C)N(CCC(O)c1ccc(C(F)(F)F)cc1)Cc1ccccc1 (stereo not shown) [Example 41],27,
CC(C)N(CCC(O)c1ccc2ccccc2c1)Cc1ccc(F)c(Cl)c1 (stereo not shown) [Example 43],0,
CC(C)N(CCCC(O)c1cccc2ccccc12)Cc1ccccc1 (stereo not shown) [Example 45],0,
CC(C)N(CCCC(O)c1ccc2ccccc2c1)Cc1ccccc1 (stereo not shown) [Example 46],2,
OC(CCN1CCN(Cc2ccccc2)CC1)c1ccc2ccccc2c1 (stereo not shown) [Example 47],0,
Cc1cc(C)c(C(O)CCN(Cc2ccccc2)C(C)C)c(C)c1 (stereo not shown) [Example 49],0,
CC(C)N(CCC(O)c1ccc(OC2CCCCO2)cc1)Cc1ccccc1 (stereo not shown) [Example 50],0,
COc1ccc2cc(C(O)CCN(Cc3ccccc3)C(C)C)ccc2c1 (stereo not shown) [Example 51],10,
CC(C)N(CCC(O)c1ccc(Oc2ccccc2)cc1)Cc1ccccc1 (stereo not shown) [Example 52],24,
CC(C)N(CCC(O)c1cccc(OCc2ccccc2)c1)Cc1ccccc1 (stereo not shown) [Example 53],31,
CC(C)N(CCC(O)c1ccc(OC(F)(F)F)cc1)Cc1ccccc1 (stereo not shown) [Example 58],1,

SMILES,inhibition at 100 µM [%],γ-Secretase Assay ELISA % Inhibition [100 μM] Aβ1-40 [%]
COc1ccc(C(O)CCN(Cc2ccccc2)C(C)C)cc1OC (stereo not shown) [Example 59],0,
COc1ccc(C(O)CCN(Cc2ccccc2)C(C)C)cc1F (stereo not shown) [Example 60],0,
CC(C)N(CCC(O)c1ccccc1CN1CCCCC1)Cc1ccccc1 (stereo not shown) [Example 61],0,
CC(C)N(CCC(O)c1ccc2c(c1)OCO2)Cc1ccccc1 (stereo not shown) [Example 62],0,
Cc1ccc(C(O)CCN(Cc2ccccc2)C(C)C)cc1C (stereo not shown) [Example 63],0,
CC(C)N(CCC(O)c1ccc(C#N)cc1)Cc1ccccc1 (stereo not shown) [Example 64],6,
CC(C)N(CCC(O)c1ccc2ccccc2c1)Cc1ccc(C(=O)O)cc1 (stereo not shown) [Example 66],2,
CC(C)N(CCC(O)c1ccc(C(=O)O)cc1)Cc1ccccc1 (stereo not shown) [Example 67],27,
COc1cccc2cc(C(O)CCN(Cc3ccccc3)C(C)C)oc12 (stereo not shown) [Example 70],0,
CC(C)N(CC[C@H](O)c1ccc2ccccc2c1)Cc1ccccc1 [Example 76],17,
OC(CCNc1ccc(Oc2ccccc2)cc1)c1ccc2ccccc2c1 (stereo not shown) [Example 77],48,
Cc1ccc(NCCC(O)c2ccc3ccccc3c2)cc1F (stereo not shown) [Example 78],0,
CCOc1ccc(NCCC(O)c2ccc(F)cc2)cc1 (stereo not shown) [Example 79],0,
COc1ccc(NCCC(O)c2ccc(Cl)cc2)cc1 (stereo not shown) [Example 80],0,
COC(CCN(Cc1ccccc1)C(C)C)c1ccc2ccccc2c1 (stereo not shown) [Example 84],51,
CC(C)N(CCC(Oc1ccc(C(F)(F)F)cc1)c1ccc2ccccc2c1)Cc1ccccc1 (stereo not shown) [Example 85],50,
COC(CCN(Cc1ccccc1)C(C)C)c1ccc2cc(C(O)CCN(Cc3ccccc3)C(C)C)ccc2c1 (stereo not shown) [Example 86],12,
CC(CN(Cc1ccccc1)C(C)C)C(O)c1ccc2ccccc2c1 (stereo not shown) [Example 87],,22
CC(CN(Cc1ccccc1)C(C)C)C(O)c1ccc2ccccc2c1 (stereo not shown) [Example 88],,66

# Molecular target: T2, γ-secretase (N100FLAG Notch-based substrate) (Homo sapiens, UniProt P49768)
# T2 construct: made in house; host or cells: S-1 CHO cell line (Chinese hamster ovary)
# Experiment: In vitro γ-secretase assay, N-100 Flag (Notch-based substrate) cleavage
# Type: biochemical
# Settings: effect on N-100 Flag cleavage; compounds tested in vitro at 100 μM
# Method: as §1
# (§3) Western Blotting and Antibodies—The following assay can be used to determine the extent to which the compounds of interest modulate the cleavage of APP and the Notch receptor. For Western analysis of PS1-NTF, PS1-CTF, Aph1α2-HA, FLAG-Pen-2, and NCT-GST, the samples are run on 4-20% Tris-glycine polyacrylamide gels, transferred to polyvinylidene difluoride, and can be probed with Ab14 (for PS1-NTF, 1:2000; a gift of S. Gandy), 13A11 (for PS1-CTF, 5 μg/ml; a gift of Elan Pharmaceuticals), 3F10 (for Aph1α2-HA, 50 ng/ml; Roche Applied Science), anti-FLAG M2 (for FLAG-Pen-2, 1:1000; Sigma), or αGST antibodies (for NCT-GST, 1:3000; Sigma). Samples from the γ-secretase activity assays (above) are run on 4-20% Tris-glycine gels and can be transferred to polyvinylidene difluoride membranes to detect AICD-FLAG with anti-FLAG M2 antibodies (1:1000, Sigma) and NICD-FLAG with Notch Ab1744 antibody (1:1000, Cell Signaling Technology), which is selective for the N terminus of NICD; the same samples are transferred to nitrocellulose membranes to detect Aβ with the anti-Aβ 6E10 antibody. Levels of AICD-FLAG and NICD-FLAG are estimated by densitometry using AlphaEase/Spot Denso (Alpha Innotech Corp.).
# as §2
row,SMILES,γ-Secretase Assay N-100 Flag
1,OC(CCN1CCN(c2ccccc2)CC1)c1ccc2ccccc2c1 (stereo not shown) [Example 3],Enh
2,CC(C)N(CCC(O)c1ccc(C(F)(F)F)cc1)Cc1ccccc1 (stereo not shown) [Example 41],Enh

# Molecular target: T3, γ-secretase (C100FLAG APP-based substrate) (Homo sapiens, UniProt P49768)
# T3 construct: made in house; host or cells: S-1 CHO cell line (Chinese hamster ovary)
# Experiment: In vitro γ-secretase assay, C-100 Flag (APP-based substrate) cleavage
# Type: biochemical
# Settings: effect on C-100 Flag cleavage; compounds tested in vitro at 100 μM
# Method: as §1, §3, §2
row,SMILES,γ-Secretase Assay C-100 Flag
1,COc1ccc(N2CCN(CCC(O)c3ccc4ccccc4c3)CC2)cc1 (stereo not shown) [Example 2],No change (NC)
2,OC(CCNc1ccccc1)c1ccc2ccccc2c1 (stereo not shown) [Example 10],Enh
3,CCN(CCC(O)c1ccc2ccccc2c1)Cc1ccccc1 (stereo not shown) [Example 12],Enh
4,COc1ccc(CN(CCC(O)c2ccc3ccccc3c2)C(C)C)cc1 (stereo not shown) [Example 29],Inh
5,OC(CCNc1ccc(Oc2ccccc2)cc1)c1ccc2ccccc2c1 (stereo not shown) [Example 77],Inh
6,Cc1ccc(NCCC(O)c2ccc3ccccc3c2)cc1F (stereo not shown) [Example 78],Enh
7,CCOc1ccc(NCCC(O)c2ccc(F)cc2)cc1 (stereo not shown) [Example 79],Enh
8,COc1ccc(NCCC(O)c2ccc(Cl)cc2)cc1 (stereo not shown) [Example 80],Enh
9,COC(CCN(Cc1ccccc1)C(C)C)c1ccc2ccccc2c1 (stereo not shown) [Example 84],Inh
10,CC(CN(Cc1ccccc1)C(C)C)C(O)c1ccc2ccccc2c1 (stereo not shown) [Example 88],Inh
